Test results published in patent US20250084033A1, “METHOD OF PROMOTING PERACETIC ACID DECOMPOSITION USING METAL COMPOUND, AND METHOD OF CULTURING MICROORGANISMS USING SAME” (N-CELL CO.,LTD, priority 2022, published 2025).
Where two headings read alike, the source gives them in different places.

Legend:
Euglena gracilis [1] = details: for absorbance of the Euglena gracilis culture solution: 680 nm; for effect on growth of Euglena gracilis (in words): acetic acid or sodium acetate 0.05-0.25% (w/v) in nutrient medium
Procedure: A nutrient medium for the cultivation of Euglena gracilis (prepared with triple-distilled water, KH2PO4, citrate, MgSO4·3H2O, vitamin B1, vitamin B6, vitamin B12, vitamin H, yeast extract, peptone, and dextrose) was autoclaved at 121° C. for 15 minutes. Sodium acetate (CH3COONa) was then added to the prepared nutrient medium at a concentration of 0.05% (w/v), and an inoculum of Euglena gracilis (KCTC AG40099) was introduced. The culture was incubated at 130 rpm, 28° C., and under light conditions of 100 μE photons/m^2/s. Growth was measured by monitoring absorbance at a wavelength of 680 nm.
The experiment was conducted in the same manner as in Example 11, except that acetic acid was added instead of sodium acetate.
The experiment was conducted in the same manner as in Comparative Example 2,except that acetic acid was added to the prepared nutrient medium at concentrations of 0.1% (w/v) (Comparative Example 3), 0.15% (w/v) (Comparative Example 4), 0.2% (w/v) (Comparative Example 5), and 0.25% (w/v) (Comparative Example 6), instead of sodium acetate.

Euglena gracilis [2] = test: Growth of Euglena gracilis in peracetic acid-treated medium with sodium bicarbonate (absorbance 680 nm); format: cell-based; details: PAA 0.05% (w/v) with or without sodium bicarbonate 0.05-0.3% (w/v)
Procedure: The growth of Euglena was measured by monitoring absorbance at a wavelength of 680 nm.

[3] = Table 3, acetic acid added, cultivation time 0 Day
[4] = Table 3, acetic acid added, cultivation time 1 Day
[5] = Table 4, sodium acetate added, cultivation time 0 Day
[6] = Table 4, sodium acetate added, cultivation time 1 Day
[7] = Table 4, sodium acetate added, cultivation time 2 Days
[8] = Table 4, sodium acetate added, cultivation time 4 Days
[9] = Table 4, sodium acetate added, cultivation time 5 Days

Row | Structure (SMILES) | absorbance of the Euglena gracilis culture solution (Euglena gracilis [1]; [3]) [AU] | absorbance of the Euglena gracilis culture solution (Euglena gracilis [1]; [4]) [AU] | absorbance of the Euglena gracilis culture solution (Euglena gracilis [1]; [5]) [AU] | absorbance of the Euglena gracilis culture solution (Euglena gracilis [1]; [6]) [AU] | absorbance of the Euglena gracilis culture solution (Euglena gracilis [1]; [7]) [AU] | absorbance of the Euglena gracilis culture solution (Euglena gracilis [1]; [8]) [AU] | absorbance of the Euglena gracilis culture solution (Euglena gracilis [1]; [9]) [AU] | also measured
1 | CC(=O)O [Comparative Example 2, acetic acid] | 1.3738 | 2.1945 |  |  |  |  |  | absorbance of the Euglena gracilis culture solution (Euglena gracilis [1]; Table 3, acetic acid added, cultivation time 2 Days): 3.929 AU; absorbance of the Euglena gracilis culture solution (Euglena gracilis [1]; Table 3, acetic acid added, cultivation time 4 Days): 10.34 AU; absorbance of the Euglena gracilis culture solution (Euglena gracilis [1]; Table 3, acetic acid added, cultivation time 5 Days): 11.063 AU; effect on growth of Euglena gracilis (in words) (Euglena gracilis [1]): no inhibitory effect
2 | CC(=O)O [Comparative Example 3, acetic acid] | 1.8372 | 1.712 |  |  |  |  |  | 
3 | CC(=O)O [Comparative Example 4, acetic acid] | 1.831 | 1.598 |  |  |  |  |  | 
4 | CC(=O)O [Comparative Example 5, acetic acid] | 1.686 | 1.5025 |  |  |  |  |  | 
5 | CC(=O)O [Comparative Example 6, acetic acid] | 1.7554 | 1.5195 |  |  |  |  |  | 
6 | CC(=O)[O-].[Na+] [Example 11, sodium acetate] |  |  | 1.33 | 2.2345 | 3.898 | 8.511 | 9.852 | 
7 | CC(=O)[O-].[Na+] [Example 12, sodium acetate] |  |  | 1.316 | 2.1825 | 3.969 | 7.739 | 8.442 | 
8 | CC(=O)[O-].[Na+] [Example 13, sodium acetate] |  |  | 1.3882 | 2.1605 | 3.861 | 7.52 | 8.561 | 
9 | CC(=O)[O-].[Na+] [Example 14, sodium acetate] |  |  | 1.3602 | 2.1565 | 3.709 | 7.624 | 8.665 | 
10 | CC(=O)[O-].[Na+] [Example 15, sodium acetate] |  |  | 1.4034 | 2.1945 | 3.803 | 7.369 | 8.405 | 
11 | CC(=O)[O-].[Na+] [sodium acetate] |  |  |  |  |  |  |  | effect on growth of Euglena gracilis (in words) (Euglena gracilis [1]): does not inhibit the growth of Euglena
12 | O=C([O-])O.[Na+] [sodium bicarbonate] |  |  |  |  |  |  |  | growth of Euglena gracilis (in words) (Euglena gracilis [2]): does not specifically affect the growth of Euglena gracilis
